Tested on: Symbiodinium cells isolated from Eunicea fusca
Assay: Effect of plant growth factors on fuscol production in in vitro cultures of alga cells isolated from Eunicea fusca
Assay type: cell-based
Settings: One hundred μM added for 48 hours after 24 hours in culture medium; compared with untreated control cells; RP HPLC, detection at 240 nm; FIG. 4
Procedure: FIG. 4 is a graph showing the induction of fuscol production in Symbiodinium cells isolated from Eunicea fusca with Methyl Jasmonate, Giberellic Acid and Salicyclic Acid.
Live Eunicea fusca was collected from Florida Keys. The tissue was homogenized in a blender using 50:50 DI/Filtered Seawater (FSW). The homogenate was strained into 50 mL Falcon tubes and centrifuged at 160×g for 5 minutes. The supernatant was discarded and the pellet was resuspended in 50:50 DI/FSW. The sample was centrifuged again, followed by three rounds of rinsing and centrifuging until the supernatant was clear. The cell pellet was layered over a Percoll gradient (30% and 70%) and centrifuged at 38×g for 10 minutes. Cells on the 30/70% interface were collected using a plastic pipet and rinsed two times in 50:50 DI/FSW water. Cells were examined by light microscopy to assess cell purity and to count the number of cells. 2.38×10^8 cells (500 μL) were removed from the sample and diluted to 2 mL with tris buffer (20 mM containing 3 mM EDTA, 5 mM MgCl2 and 5 mM β-mercaptoethanol). The sample was incubated with 1μ Ci ^3H-GGPP for 24 hrs at 29° C. and 180 RPM. The cells were centrifuged and the buffer was removed using a syringe and filtered into a scintillation vial. The cells were extracted with methylene chloride and ethyl acetate (8 times) followed by filtration into the scintillation vial containing the buffer. The crude extract was dried and weighed. The dried extract weighed 7.08 mg. The extract was partitioned between MeOH:H2O 9:1 and hexanes. The hexanes layer was dried and weighed. This layer weighed 4.77 mg. Water was added to make MeOH:H2O at a ratio of 1:1 and partitioned with methylene chloride. The CH2Cl2 layer was dried and weighed. This layer weighed 1.67 mg.
Referring to FIG. 4, the effect of growth factors on the production of fuscol in in vitro cultures of alga cells isolated from Eunicea fusca (as described above) was analyzed. […] The cells were then extracted and fuscol concentrations were determined by standard chromatographic methods (RP HPLC, detection at λ 240 nm).

| Structure (SMILES) | production of fuscol (fuscol concentration in extracted cells) |
| --- | --- |
| O=C(O)c1ccccc1O [salicyclic acid] | Significantly more fuscol was produced |
| CC/C=C\CC1C(=O)CCC1CC(=O)OC (stereo not drawn) [methyl jasmonate] | Significantly more fuscol was produced |
| C=C1C[C@]23CC1(O)CC[C@H]2[C@@]12C=C[C@H](O)C(C)(C(=O)O1)[C@H]2[C@@H]3C(=O)O [giberellic acid] | Significantly more fuscol was produced |

— US20050244427A1, “Isolation and production of bioactive marine products” (priority 2004, published 2005)
